{
  "source": "patent US20260166017A1",
  "about": "“SARM1 INHIBITORS FOR USE IN THERAPY AND COSMETICS” (priority 2022, published 2026)",
  "key": {"[1]": {"tested_on": "neuronal cultures", "settings": "Loreto et al., 2021, Wu et al.; cited from earlier work"}, "[2]": {"tested_on": "Schwann cells", "assay": "Intracellular NAD+ in Schwann cells (NAD-glo assay)", "type": "cell-based, mouse", "settings": "100 μM vacor, 72 hours, compared to DMSO control", "protocol": "Freshly plated mouse Schwann cells were obtained from P2 sciatic and brachial nerves. Nerves were digested with trypsin and collagenase, centrifuged and plated on laminin/Poly-L-lysine coated glass coverslips in defined medium as previously described (Arthur-Farraj et al., 2011).\n[…] Protein was extracted using Pierce™ IP Lysis Buffer supplemented with cOmplete™ Mini EDTA-free Protease Inhibitor Cocktail, and a BCA assay carried out to determine protein concentration. All samples were diluted to 0.5 μg/μL. The NAD-glo assay was performed according to manufacturer's instruction of the NAD^+/NADH-Glo™ assay by Promega (G9071). In short, 25 μL of sample were incubated with 12.5 μL 0.4M HCl at 60° C. for 15 min, before 12.5 μL 0.5M Tris base were added. 10 μL NAD^+ standards or sample were then mixed with 10 μL NAD-glo master mix (1 ml luciferin detection reagent, 5 μl reductase, 5 μl reductase substrate, 5 μl NAD^+ cycling enzyme, 25 μl NAD^+ cycling substrate) and incubated at RT for 40 min. Luminescence was read using a GloMax® Explorer microplate reader and NAD^+ concentrations determined relative to a NAD^+ standard curve."}, "[3]": {"target": "T1, SARM1 (Homo sapiens, UniProt Q6SZW1)", "T1 sequence (Q6SZW1 28-724)": "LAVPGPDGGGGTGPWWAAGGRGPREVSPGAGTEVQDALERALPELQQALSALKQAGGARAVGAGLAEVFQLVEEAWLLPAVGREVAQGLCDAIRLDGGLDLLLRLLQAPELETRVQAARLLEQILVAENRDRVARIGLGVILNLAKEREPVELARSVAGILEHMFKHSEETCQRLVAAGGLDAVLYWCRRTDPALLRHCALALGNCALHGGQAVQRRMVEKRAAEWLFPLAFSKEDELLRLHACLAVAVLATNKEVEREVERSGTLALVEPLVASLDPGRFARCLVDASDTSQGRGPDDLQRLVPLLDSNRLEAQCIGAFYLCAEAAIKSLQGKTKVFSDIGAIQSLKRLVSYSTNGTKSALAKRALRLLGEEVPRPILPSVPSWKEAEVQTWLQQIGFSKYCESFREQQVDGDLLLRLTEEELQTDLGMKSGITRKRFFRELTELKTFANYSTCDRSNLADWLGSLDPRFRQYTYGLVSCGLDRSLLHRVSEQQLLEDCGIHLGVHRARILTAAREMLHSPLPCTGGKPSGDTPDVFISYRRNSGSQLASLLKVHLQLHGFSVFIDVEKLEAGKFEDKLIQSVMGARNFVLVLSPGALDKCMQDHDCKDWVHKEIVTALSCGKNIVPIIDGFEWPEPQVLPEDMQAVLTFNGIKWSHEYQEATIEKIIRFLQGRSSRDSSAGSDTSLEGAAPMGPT", "settings": "Loreto et al., 2021; Angeletti et al., 2022; Wu et al.; cited from earlier work"}, "[4]": {"tested_on": "Human foetal DRG axons", "assay": "Axon degeneration and regeneration assay in human foetal DRGs in microfluidic chambers", "type": "cell-based", "settings": "24 h after addition of 25 μM Vacor in the axonal compartment", "protocol": "Human foetal DRG ganglia were dissected, dissociated and plated in microfluidic chambers (150 μm barrier, XONA Microfluidics) in 35 mm tissue culture dishes pre-coated with poly-L-lysine (100 μg/ml for 1 hr; Merck) and laminin (20 μg/ml for 1 hr; Merck) in Dulbecco's Modified Eagle's Medium (DMEM, Gibco) with 1% penicillin/streptomycin, 33 ng/ml 2.5 S NGF (all Invitrogen) and 2% B27 (Gibco). 4 μM aphidicolin (Merck) was used to reduce proliferation and viability of small numbers of non-neuronal cells. On DIV7, a difference of 100 μl of media between chambers was introduced and drugs were added to the compartment with the lower hydrostatic pressure. Phase contrast microscopy images were acquired on a DMi8 upright fluorescence microscope (Leica microsystems) coupled to a monochrome digital camera (Hamamatsu C4742-95). The objective used was HCXPL 20 X/0.40 CORR."}, "[5]": {"tested_on": "HEK293 cells", "assay": "Intracellular NAD+ in HEK293 cells (NAD-glo assay)", "type": "cell-based, Human", "settings": "100 μM vacor, 72 hours", "protocol": "Schwann and HEK 293T cells were treated with 100 μM vacor, 250 μM 3AP, or vehicle controls, and collected in media at Oh and 72 h after treatment. Protein was extracted using Pierce™ IP Lysis Buffer supplemented with cOmplete™ Mini EDTA-free Protease Inhibitor Cocktail, and a BCA assay carried out to determine protein concentration. All samples were diluted to 0.5 μg/μL. The NAD-glo assay was performed according to manufacturer's instruction of the NAD^+/NADH-Glo™ assay by Promega (G9071). In short, 25 μL of sample were incubated with 12.5 μL 0.4M HCl at 60° C. for 15 min, before 12.5 μL 0.5M Tris base were added. 10 μL NAD^+ standards or sample were then mixed with 10 μL NAD-glo master mix (1 ml luciferin detection reagent, 5 μl reductase, 5 μl reductase substrate, 5 μl NAD^+ cycling enzyme, 25 μl NAD^+ cycling substrate) and incubated at RT for 40 min. Luminescence was read using a GloMax® Explorer microplate reader and NAD^+ concentrations determined relative to a NAD^+ standard curve."}},
  "note": "Entries after “also recorded” stand apart in the source; their conditions may differ.",
  "data": [
    {"compound": "O=C(NCc1cccnc1)Nc1ccc([N+](=O)[O-])cc1", "note": "[vacor, Vacor]", "values": [
      {"measurement": "effect of high dose on neuronal cultures", "setting": "[1]", "result": "axonal degeneration and cell death within hours"},
      {"measurement": "Intracellular NAD+ levels", "setting": "[2]", "result": "no reduction; also recorded: do not change"},
      {"measurement": "SARM1 activity on interaction with active site (TIR domain) for base exchange reaction", "setting": "[3]", "result": "modest increase in SARM1 activity"},
      {"measurement": "DRG axon degeneration", "setting": "[4]", "result": "degenerate"},
      {"measurement": "Intracellular NAD+ levels", "setting": "[5]", "result": "decrease"}
    ]}
  ]
}
